Assay results taken from patent publication US9708331B2, “Metabotrophic glutamate receptor 5 modulators and methods of use thereof” (SUNOVION PHARMACEUTICALS INC., priority 2011, dated 2017).

Columns and labels:
mGluR5 [1] = target: T1, mGluR5 (Homo sapiens, UniProt P41594); assay: mGluR5 fold shift at a fixed compound concentration; assay type: cell-based
mGluR5 [2] = target: T1, mGluR5; assay: mGluR5 PAM EC50 (positive allosteric modulator potency); assay type: cell-based

T1 sequence (P41594 21-1212): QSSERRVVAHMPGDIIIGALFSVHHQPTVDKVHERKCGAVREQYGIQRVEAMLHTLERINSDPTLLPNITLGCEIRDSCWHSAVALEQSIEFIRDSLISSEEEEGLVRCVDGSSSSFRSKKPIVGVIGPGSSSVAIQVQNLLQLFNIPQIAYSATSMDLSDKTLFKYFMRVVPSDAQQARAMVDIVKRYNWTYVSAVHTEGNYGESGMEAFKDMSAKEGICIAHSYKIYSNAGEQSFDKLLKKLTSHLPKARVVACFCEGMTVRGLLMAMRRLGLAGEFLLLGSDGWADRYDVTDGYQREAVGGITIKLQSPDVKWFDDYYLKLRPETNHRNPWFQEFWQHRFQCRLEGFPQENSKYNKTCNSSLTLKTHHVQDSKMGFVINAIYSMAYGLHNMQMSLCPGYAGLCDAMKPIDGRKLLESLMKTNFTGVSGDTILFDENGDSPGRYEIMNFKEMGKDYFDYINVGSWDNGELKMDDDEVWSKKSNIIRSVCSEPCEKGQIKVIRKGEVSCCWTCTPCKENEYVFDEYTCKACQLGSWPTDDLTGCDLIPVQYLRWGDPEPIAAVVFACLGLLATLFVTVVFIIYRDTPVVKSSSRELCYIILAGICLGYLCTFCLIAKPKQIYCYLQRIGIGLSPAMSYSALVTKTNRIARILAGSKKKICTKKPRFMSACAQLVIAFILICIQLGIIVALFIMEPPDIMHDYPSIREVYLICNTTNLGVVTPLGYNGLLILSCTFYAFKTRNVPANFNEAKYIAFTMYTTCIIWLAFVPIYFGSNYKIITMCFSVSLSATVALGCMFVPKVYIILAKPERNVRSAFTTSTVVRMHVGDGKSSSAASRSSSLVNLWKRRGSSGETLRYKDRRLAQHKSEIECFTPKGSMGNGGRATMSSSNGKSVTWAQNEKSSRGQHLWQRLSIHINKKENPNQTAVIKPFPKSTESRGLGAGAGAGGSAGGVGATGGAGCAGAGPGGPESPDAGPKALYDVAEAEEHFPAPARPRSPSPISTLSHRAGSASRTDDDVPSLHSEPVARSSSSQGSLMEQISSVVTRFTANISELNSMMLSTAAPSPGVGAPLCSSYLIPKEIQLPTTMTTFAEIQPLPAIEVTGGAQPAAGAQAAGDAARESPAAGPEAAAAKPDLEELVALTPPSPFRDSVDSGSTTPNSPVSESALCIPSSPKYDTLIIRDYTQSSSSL

CC1(C)CCc2nc3cc(C#Cc4cccc(C#N)c4)ccc3c(=O)n2C1 [Example 2.45, 3-((8,8-dimethyl-11-oxo-7,8,9,11-tetrahydro-6H-pyrido[2,1-b]quinazolin-3-yl)ethynyl)benzonitrile]
Fold shift at 1 μM (mGluR5 [1]): ++ (++ is between 2.0 and 2.9)
EC50 (mGluR5 [2]): 10 to 30 nM

CC1(C)CC(F)c2nc3cc(C#Cc4ccccn4)ccc3c(=O)n2C1 (single isomer, unassigned) [Example 2.12b]
Fold shift at 10 μM (mGluR5 [1]): + (+ is between 1.5 and 1.9)

CC1(C)CCc2nc3c(F)c(C#Cc4ccccn4)ccc3c(=O)n2C1 [Example 2.30b, 4-fluoro-8,8-dimethyl-3-(pyridin-2-ylethynyl)-8,9-dihydro-6H-pyrido[2,1-b]quinazolin-11(7H)-one]
Fold shift at 1 μM (mGluR5 [1]): +++ (+++>3)
EC50 (mGluR5 [2]): 10 to 30 nM

CC1Cn2c(nc3cc(C#Cc4ccccn4)ccc3c2=O)CCC1(F)F (single isomer, unassigned) [Example 3.30f]
Fold shift at 10 μM (mGluR5 [1]): ++ (++ is between 2.0 and 2.9)
EC50 (mGluR5 [2]): 10 to 30 nM

CC12Cc3nc4cc(C#Cc5ccccn5)ccc4c(=O)n3CC1C2 (stereo not drawn) [Example 2.98, 1a-methyl-5-(pyridin-2-ylethynyl)-1a,2,10,10a-tetrahydrocyclopropa[4,5]pyrido [2,1-b]quinazolin-8(1H)-one]
Fold shift at 1 μM (mGluR5 [1]): +++ (+++>3)
EC50 (mGluR5 [2]): < 10 nM

CC1(C)CCc2nc3cc(C#Cc4cccnn4)ccc3c(=O)n2C1 [Example 2.105, 8,8-dimethyl-3-(pyridazin-3-ylethynyl)-8,9-dihydro-6H-pyrido[2,1-b]quinazolin-11(7H)-one]
Fold shift at 1 μM (mGluR5 [1]): ++ (++ is between 2.0 and 2.9)
EC50 (mGluR5 [2]): 30 to 100 nM

Cc1cccc(C#Cc2ccc3c(=O)n4c(nc3c2)CCC(C)(C)C4)c1 [Example 2.44, 8,8-dimethyl-3-(m-tolylethynyl)-8,9-dihydro-6H-pyrido[2,1-b]quinazolin-11(7H)-one]
Fold shift at 1 μM (mGluR5 [1]): +++ (+++>3)
EC50 (mGluR5 [2]): < 10 nM

O=c1c2ccc(C#Cc3ccccn3)cc2nc2n1CC(C(F)(F)F)C2 (single isomer, unassigned) [Example 1.8a]
Fold shift at 1 μM (mGluR5 [1]): +++ (+++>3)
EC50 (mGluR5 [2]): 10 to 30 nM

CC1(C)CCc2nc3cc(C#Cc4ccc(F)cn4)ccc3c(=O)n2C1 [Example 2.43, 3-((5-fluoropyridin-2-yl)ethynyl)-8,8-dimethyl-8,9-dihydro-6H-pyrido[2,1-b]quinazolin-11(7H)-one]
Fold shift at 1 μM (mGluR5 [1]): ++ (++ is between 2.0 and 2.9)
EC50 (mGluR5 [2]): < 10 nM

O=c1c2ccc(C#Cc3ccccn3)cc2nc2n1CC1(CCC1)C2 [Example 1.7, 6′-(pyridin-2-ylethynyl)-1′H-spiro[cyclobutane-1,2′-pyrrolo[2,1-b]quinazolin]-9′(3′H)-one]
Fold shift at 1 μM (mGluR5 [1]): +++ (+++>3)
EC50 (mGluR5 [2]): 10 to 30 nM

CC1(F)CCc2nc3cc(C#Cc4ccccn4)cnc3c(=O)n2CC1 (single isomer, unassigned) [Example 3.10b]
Fold shift at 1 μM (mGluR5 [1]): +++ (+++>3)
EC50 (mGluR5 [2]): 30 to 100 nM

CC12Cn3c(nc4cc(C#Cc5ccccn5)ccc4c3=O)CC1C2(F)F (stereo not drawn) [Example 2.69, 1,1-difluoro-10a-methyl-5-(pyridin-2-ylethynyl)-1a,2,10,10a-tetrahydrocyclopropa[4,5]pyrido [2,1-b]quinazolin-8(1H)-one]
Fold shift at 1 μM (mGluR5 [1]): +++ (+++>3)
EC50 (mGluR5 [2]): < 10 nM

CC1CCn2c(nc3cc(C#Cc4ccccn4)ccc3c2=O)C1 (single isomer, unassigned) [Example 2.1b]
Fold shift at 1 μM (mGluR5 [1]): ++ (++ is between 2.0 and 2.9)

CC1(C)CC(F)c2nc3cc(C#Cc4ccccn4)ccc3c(=O)n2C1 (single isomer, unassigned) [Example 2.12a]
Fold shift at 10 μM (mGluR5 [1]): +++ (+++>3)
EC50 (mGluR5 [2]): < 10 nM

CC1(CF)CCc2nc3cc(C#Cc4ccccn4)ccc3c(=O)n2C1 (stereo not drawn) [Example 2.96, 8-(fluoromethyl)-8-methyl-3-(pyridin-2-ylethynyl)-8,9-dihydro-6H-pyrido[2,1-b]quinazolin-11(7H)-one]
Fold shift at 1 μM (mGluR5 [1]): +++ (+++>3)
EC50 (mGluR5 [2]): < 10 nM

CC1CCc2cc3cc(C#Cc4ccccn4)ccc3c(=O)n2CC1 (single isomer, unassigned) [Example 3.20a]
Fold shift at 10 μM (mGluR5 [1]): +++ (+++>3)
EC50 (mGluR5 [2]): < 10 nM

COC1CCc2nc3cc(C#Cc4ccccn4)ccc3c(=O)n2CC1 (single isomer, unassigned) [Example 3.11b]
Fold shift at 1 μM (mGluR5 [1]): ++ (++ is between 2.0 and 2.9)
EC50 (mGluR5 [2]): 10 to 30 nM

CC1(C)Cc2nc3cc(C#Cc4ccccn4)ccc3c(=O)n2O1 [Example 1.15, 2,2-dimethyl-6-(pyridin-2-ylethynyl)-2H-isoxazolo[3,2-b]quinazolin-9(3H)-one]
Fold shift at 1 μM (mGluR5 [1]): + (+ is between 1.5 and 1.9)
EC50 (mGluR5 [2]): 30 to 100 nM

O=c1c2ccc(C#Cc3ccccn3)cc2nc2n1C1CCC2C1 (single isomer, unassigned) [Example 2.9a]
Fold shift at 1 μM (mGluR5 [1]): + (+ is between 1.5 and 1.9)
EC50 (mGluR5 [2]): 10 to 30 nM

CCC1(C)Cc2nc3cc(C#Cc4ccccn4)cnc3c(=O)n2C1 (stereo not drawn) [Example 1.19, 7-ethyl-7-methyl-3-(pyridin-2-ylethynyl)-7,8-dihydropyrido[3,2-d]pyrrolo[1,2-a]pyrimidin-10(6H)-one]
Fold shift at 1 μM (mGluR5 [1]): ++ (++ is between 2.0 and 2.9)
EC50 (mGluR5 [2]): 30 to 100 nM

COC1(C)CCc2nc3cc(C#Cc4ccccn4)ccc3c(=O)n2CC1 (single isomer, unassigned) [Example 3.4b]
Fold shift at 10 μM (mGluR5 [1]): ++ (++ is between 2.0 and 2.9)

CC1Cc2nc3cc(C#Cc4ccccn4)ccc3c(=O)n2CCC1(F)F (single isomer, unassigned) [Example 3.30d]
Fold shift at 10 μM (mGluR5 [1]): + (+ is between 1.5 and 1.9)

CC1(F)CCCc2nc3cc(C#Cc4ccccn4)cnc3c(=O)n2C1 (stereo not drawn) [Example 3.25, 9-fluoro-9-methyl-3-(pyridin-2-ylethynyl)-7,8,9,10-tetrahydropyrido[3′,2′:4,5]pyrimido [1,2-a]azepin-12(6H)-one]
EC50 (mGluR5 [2]): 100 to 300 nM

CC1(C)CCc2nc3cc(-c4nnc(-c5ccccn5)o4)ccc3c(=O)n2C1 [Example 6.35, 8,8-dimethyl-3-(5-(pyridin-2-yl)-1,3,4-oxadiazol-2-yl)-8,9-dihydro-6H-pyrido[2,1-b]quinazolin-11(7H)-one]
EC50 (mGluR5 [2]): 100 to 300 nM

O=c1c2ccc(C#Cc3ccccn3)cc2nc2n1CCC(F)CC2 (single isomer, unassigned) [Example 3.1a]
EC50 (mGluR5 [2]): 30 to 100 nM

N#Cc1ccnc(C#Cc2ccc3c(=O)n4c(nc3c2)CCCCC4)c1 [Example 3.5, 2-((12-oxo-6,7,8,9,10,12-hexahydroazepino[2,1-b]quinazolin-3-yl)ethynyl)isonicotinonitrile]
EC50 (mGluR5 [2]): 10 to 30 nM

O=c1c2ccc(C#Cc3ccccn3)cc2nc2n1C1CCC2C1 (single isomer, unassigned) [Example 2.9b]
Fold shift at 1 μM (mGluR5 [1]): ++ (++ is between 2.0 and 2.9)

CC1(C)C=Cc2nc3cc(C#Cc4ccccn4)ccc3c(=O)n2CC1 [Example 3.42, 8,8-dimethyl-3-(pyridin-2-ylethynyl)-9,10-dihydroazepino[2,1-b]quinazolin-12(8H)-one]
EC50 (mGluR5 [2]): 30 to 100 nM

CCC1(F)CCc2nc3cc(C#Cc4ccccn4)cnc3c(=O)n2CC1 (stereo not drawn) [Example 3.18, 8-ethyl-8-fluoro-3-(pyridin-2-ylethynyl)-7,8,9,10-tetrahydropyrido[3′,2′:4,5]pyrimido [1,2-a]azepin-12(6H)-one]
EC50 (mGluR5 [2]): 30 to 100 nM

CC1(C)CCn2c(nc3cc(C#Cc4cccc(C#N)n4)ccc3c2=O)C1 [Example 2.24a, 6-((7,7-dimethyl-11-oxo-7,8,9,11-tetrahydro-6H-pyrido[2,1-b]quinazolin-3-yl)ethynyl)picolinonitrile]
EC50 (mGluR5 [2]): < 10 nM

CC1CCn2c(nc3cc(C#Cc4ccccn4)ccc3c2=O)C1 (single isomer, unassigned) [Example 2.1a]
EC50 (mGluR5 [2]): 10 to 30 nM

CC1(C)CCc2nc3cc(-c4cnc(-c5ccccn5)s4)ccc3c(=O)n2C1 [Example 6.28, 8,8-dimethyl-3-(2-(pyridin-2-yl)thiazol-5-yl)-8,9-dihydro-6H-pyrido[2,1-b]quinazolin-11(7H)-one]
EC50 (mGluR5 [2]): 300 to 1000 nM

CC1(C)CCc2nc3cc(COc4ccccn4)ccc3c(=O)n2C1 [Example 6.4, 8,8-dimethyl-3-((pyridin-2-yloxy)methyl)-8,9-dihydro-6H-pyrido[2,1-b]quinazolin-11(7H)-one]
EC50 (mGluR5 [2]): 100 to 300 nM

C=CC1(F)CCc2nc3cc(C#Cc4ccccn4)ccc3c(=O)n2C1 (stereo not drawn) [Example 2.38, 8-fluoro-3-(pyridin-2-ylethynyl)-8-vinyl-8,9-dihydro-6H-pyrido[2,1-b]quinazolin-11(7H)-one]
EC50 (mGluR5 [2]): 10 to 30 nM

CC1(C)CCc2nc3cc(C#Cc4ccc(C#N)cn4)ccc3c(=O)n2C1 [Example 2.39, 6-((8,8-dimethyl-11-oxo-7,8,9,11-tetrahydro-6H-pyrido[2,1-b]quinazolin-3-yl)ethynyl)nicotinonitrile]
EC50 (mGluR5 [2]): 10 to 30 nM

CC1CCc2nc3cc(C#Cc4cc(C#N)ccn4)ccc3c(=O)n2CC1 (stereo not drawn) [Example 3.19, 2-((8-methyl-12-oxo-6,7,8,9,10,12-hexahydroazepino[2,1-b]quinazolin-3-yl)ethynyl)isonicotinonitrile]
EC50 (mGluR5 [2]): 30 to 100 nM

CCC1CCCc2nc3cc(C#Cc4ccccn4)ccc3c(=O)n21 (single isomer, unassigned) [Example 2.7a]
EC50 (mGluR5 [2]): 30 to 100 nM

CC(C)(F)C1Cc2nc3cc(C#Cc4ccccn4)ccc3c(=O)n2C1 (single isomer, unassigned) [Example 1.3b]
EC50 (mGluR5 [2]): 100 to 300 nM

CC1(C)CCc2nc3cc(-c4nnc(-c5ccccn5)s4)ccc3c(=O)n2C1 [Example 6.38, 8,8-dimethyl-3-(5-(pyridin-2-yl)-1,3,4-thiadiazol-2-yl)-8,9-dihydro-6H-pyrido[2,1-b]quinazolin-11(7H)-one]
EC50 (mGluR5 [2]): 100 to 300 nM

CC1CCc2nc3c(F)c(C#Cc4ccccn4)ccc3c(=O)n2CC1 (single isomer, unassigned) [Example 3.12b]
EC50 (mGluR5 [2]): 10 to 30 nM

O=c1c2ccc(C#Cc3ccccn3)cc2nc2n1CC1CC(F)(F)CN1CC2 (stereo not drawn) [Example 3.33a, 2,2-difluoro-9-(pyridin-2-ylethynyl)-2,3,5,6,14,14a-hexahydropyrrolo[2′,1′:3,4][1,4] diazepino[7,1-b]quinazolin-12(1H)-one]
EC50 (mGluR5 [2]): 30 to 100 nM

CC1(C)CCn2c(nc3cc(C#Cc4ccccn4)c(F)cc3c2=O)C1 [Example 2.31a, 2-fluoro-7,7-dimethyl-3-(pyridin-2-ylethynyl)-8,9-dihydro-6H-pyrido[2,1-b]quinazolin-11(7H)-one]
EC50 (mGluR5 [2]): 30 to 100 nM
